{"source": "patent US20140343000A1", "about": "(priority 2011, published 2014)", "data": [{"system": "recombinant NL4-3 virus (Renilla luciferase in nef, Gag P373S; NLRluc) in MT-2 cells", "assay": "whole plant or invertebrate", "type": "cell-based, HIV", "conditions": "Renilla, NL43", "in_short": "(§1)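 Cells grown in serum-supplemented RPMI were exposed to graded inhibitor concentrations during a 4-5 day infection. Antiviral effect was then derived from luminescence after adding a combined lysis and dual-luciferase substrate mixture to each well.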", "units": {"EC50": "nM"}, "values": [{"smiles": "C=C(C)[C@@H]1CC[C@]2(N3CC3)CC[C@]3(C)[C@H](CC[C@@H]4[C@@]5(C)CC=C(c6ccc(C(=O)O)cc6)C(C)(C)[C@@H]5CC[C@]43C)[C@@H]12", "note": "[Example 173, 4-((1R,3aS,5aR,5bR,7aR,11aS,11bR,13bR)-3a-(aziridin-1-yl)-5a,5b,8,8,11a-pentamethyl-1-(prop-1-en-2-yl)-2,3,3a,4,5,5a,5b,6,7,7a,8,11,11a,11b,12,13,13a,13b-octadecahydro-1H-cyclopenta[a]chrysen-9-yl)benzoic acid]", "EC50": "< 100"}]}, {"system": "recombinant NL4-3 virus (Renilla luciferase in nef, Gag P373S; NLRluc) in MT-2 cells", "assay": "whole plant or invertebrate", "type": "cell-based, HIV", "conditions": "Renilla, NL43, luciferase activity in cells infected for 4-5 days with NLRluc recombinants, serial dilutions of inhibitor; class symbols (key in Table 1); read-out: EC50", "in_short": "as §1", "units": {"EC50": "nM"}, "values": [{"smiles": "C=C(C)[C@@H]1CC[C@]2(NCCN3CCN(S(=O)(=O)c4ccccc4)CC3)CC[C@]3(C)[C@H](CC[C@@H]4[C@@]5(C)CC=C(c6ccc(C(=O)O)cc6)C(C)(C)[C@@H]5CC[C@]43C)[C@@H]12", "note": "[Example B44, 4-((1R,3aS,5aR,5bR,7aR,11aS,11bR,13aR,13bR)-5a,5b,8,8,11a-pentamethyl-3a-((2-(4-(phenylsulfonyl)piperazin-1-yl)ethyl)amino)-1-(prop-1-en-2-yl)-2,3,3a,4,5,5a,5b,6,7,7a,8,11,11a,11b,12,13,13a,13b-octadecahydro-1H-cyclopenta[a]chrysen-9-yl)benzoic acid]", "EC50": "< 100"}, {"smiles": "C=C(C)[C@@H]1CC[C@]2(NCCNc3ccc(SC)cn3)CC[C@]3(C)[C@H](CC[C@@H]4[C@@]5(C)CC=C(c6ccc(C(=O)O)cc6)C(C)(C)[C@@H]5CC[C@]43C)[C@@H]12", "note": "[Example 196, 4-((1R,3aS,5aR,5bR,7aR,11aS,11bR,13aR,13bR)-5a,5b,8,8,11a-pentamethyl-3a-(2-(5-(methylthio)pyridin-2-ylamino)ethylamino)-1-(prop-1-en-2-yl)-2,3,3a,4,5,5a,5b,6,7,7a,8,11,11a,11b,12,13,13a,13b-octadecahydro-1H-cyclopenta[a]chrysen-9-yl)benzoic acid]", "EC50": "< 100"}, {"smiles": "C=C(C)[C@@H]1CC[C@]2(NC(=O)Cc3nnn[nH]3)CC[C@]3(C)[C@H](CC[C@@H]4[C@@]5(C)CC=C(c6ccc(C(=O)O)cc6)C(C)(C)[C@@H]5CC[C@]43C)[C@@H]12", "note": "[Example 77, 4-((1R,3aS,5aR,5bR,7aR,11aS,11bR,13aR,13bR)-3a-(2-(1H-tetrazol-5-yl)acetamido)-5a,5b,8,8,11a-pentamethyl-1-(prop-1-en-2-yl)-2,3,3a,4,5,5a,5b,6,7,7a,8,11,11a,11b,12,13,13a,13b-octadecahydro-1H-cyclopenta[a]chrysen-9-yl)benzoic acid]", "EC50": "< 100"}, {"smiles": "C=C(C)[C@@H]1CC[C@]2(NCCN3CCN(S(=O)(=O)c4cn(C)cn4)CC3)CC[C@]3(C)[C@H](CC[C@@H]4[C@@]5(C)CC=C(c6ccc(C(=O)O)cc6)C(C)(C)[C@@H]5CC[C@]43C)[C@@H]12", "note": "[Example B43, 4-((1R,3aS,5aR,5bR,7aR,11aS,11bR,13aR,13bR)-5a,5b,8,8,11a-pentamethyl-3a-((2-(4-((1-methyl-1H-imidazol-4-yl)sulfonyl)piperazin-1-yl)ethyl)amino)-1-(prop-1-en-2-yl)-2,3,3a,4,5,5a,5b,6,7,7a,8,11,11a,11b,12,13,13a,13b-octadecahydro-1H-cyclopenta[a]chrysen-9-yl)benzoic acid]", "EC50": "< 100"}, {"smiles": "C=C(C)[C@@H]1CC[C@]2(NC(=O)N(C)CCN3CCCC3)CC[C@]3(C)[C@H](CC[C@@H]4[C@@]5(C)CC=C(c6ccc(C(=O)O)cc6)C(C)(C)[C@@H]5CC[C@]43C)[C@@H]12", "note": "[Example 44, 4-((1R,3aS,5aR,5bR,7aR,11aS,11bR,13aR,13bR)-5a,5b,8,8,11a-pentamethyl-3a-(3-methyl-3-(2-(pyrrolidin-1-yl)ethyl)ureido)-1-(prop-1-en-2-yl)-2,3,3a,4,5,5a,5b,6,7,7a,8,11,11a,11b,12,13,13a,13b-octadecahydro-1H-cyclopenta[a]chrysen-9-yl)benzoic acid]", "EC50": "< 100"}, {"smiles": "C=C(C)[C@@H]1CC[C@]2(NC(=O)N(CCCO)CCN3CCS(=O)(=O)CC3)CC[C@]3(C)[C@H](CC[C@@H]4[C@@]5(C)CC=C(c6ccc(C(=O)O)cc6)C(C)(C)[C@@H]5CC[C@]43C)[C@@H]12", "note": "[Example 66, 4-((1R,3aS,5aR,5bR,7aR,11aS,11bR,13aR,13bR)-3a-(((2-(1,1-dioxido-4-thiomorpholinyl)ethyl)(3-hydroxypropyl)carbamoyl)amino)-1-isopropenyl-5a,5b,8,8,11a-pentamethyl-2,3,3a,4,5,5a,5b,6,7,7a,8,11,11a,11b,12,13,13a,13b-octadecahydro-1H-cyclopenta[a]chrysen-9-yl)benzoic acid]", "EC50": "< 100"}, {"smiles": "C=C(C)[C@@H]1CC[C@]2(NC(=O)N(CCOC)CCN3CCS(=O)(=O)CC3)CC[C@]3(C)[C@H](CC[C@@H]4[C@@]5(C)CC=C(c6ccc(C(=O)O)cc6)C(C)(C)[C@@H]5CC[C@]43C)[C@@H]12", "note": "[Example 67, 4-((1R,3aS,5aR,5bR,7aR,11aS,11bR,13aR,13bR)-3a-(((2-(1,1-dioxido-4-thiomorpholinyl)ethyl)(2-methoxyethyl)carbamoyl)amino)-1-isopropenyl-5a,5b,8,8,11a-pentamethyl-2,3,3a,4,5,5a,5b,6,7,7a,8,11,11a,11b,12,13,13a,13b-octadecahydro-1H-cyclopenta[a]chrysen-9-yl)benzoic acid]", "EC50": "< 100"}, {"smiles": "C=C(C)[C@@H]1CC[C@]2(Nc3nc(C)c(C)s3)CC[C@]3(C)[C@H](CC[C@@H]4[C@@]5(C)CC=C(c6ccc(C(=O)O)cc6)C(C)(C)[C@@H]5CC[C@]43C)[C@@H]12", "note": "[Example 183, 4-((1R,3aS,5aR,5bR,7aR,11aS,11bR,13aR,13bR)-3a-(4,5-dimethylthiazol-2-ylamino)-5a,5b,8,8,11a-pentamethyl-1-(prop-1-en-2-yl)-2,3,3a,4,5,5a,5b,6,7,7a,8,11,11a,11b,12,13,13a,13b-octadecahydro-1H-cyclopenta[a]chrysen-9-yl)benzoic acid]", "EC50": "< 100"}, {"smiles": "C=C(C)[C@@H]1CC[C@]2(NC(=O)CN3CCS(=O)(=O)CC3)CC[C@]3(C)[C@H](CC[C@@H]4[C@@]5(C)CC=C(c6ccc(C(=O)O)cc6)C(C)(C)[C@@H]5CC[C@]43C)[C@@H]12", "note": "[Example 82, benzoic acid, 4-[(1R,3aS,5aR,5bR,7aR,11aS,11bR,13aR,13bR)-3a-[[(1,1-dioxido-4-thiomorpholinyl)acetyl]amino]-2,3,3a,4,5,5a,5b,6,7,7a,8,11,11a,11b,12,13,13a,13b-octadecahydro-5a,5b,8,8,11a-pentamethyl-1-(1-methylethenyl)-1H-cyclopenta[a]chrysen-9-yl]]", "EC50": "< 100"}, {"smiles": "C=C(C)[C@@H]1CC[C@]2(NCc3ccco3)CC[C@]3(C)[C@H](CC[C@@H]4[C@@]5(C)CC=C(c6ccc(C(=O)O)cc6)C(C)(C)[C@@H]5CC[C@]43C)[C@@H]12", "note": "[Example 155, 4-((1R,3aS,5aR,5bR,7aR,11aS,11bR,13aR,13bR)-3a-(furan-2-ylmethylamino)-5a,5b,8,8,11a-pentamethyl-1-(prop-1-en-2-yl)-2,3,3a,4,5,5a,5b,6,7,7a,8,11,11a,11b,12,13,13a,13b-octadecahydro-1H-cyclopenta[a]chrysen-9-yl)benzoic acid]", "EC50": "< 100"}, {"smiles": "C=C(C)[C@@H]1CC[C@]2(NC(=O)CNS(=O)(=O)c3cccs3)CC[C@]3(C)[C@H](CC[C@@H]4[C@@]5(C)CC=C(c6ccc(C(=O)O)cc6)C(C)(C)[C@@H]5CC[C@]43C)[C@@H]12", "note": "[Example 115, 4-((1R,3aS,5aR,5bR,7aR,11aS,11bR,13aR,13bR)-5a,5b,8,8,11a-pentamethyl-1-(prop-1-en-2-yl)-3a-(2-(thiophene-2-sulfonamido)acetamido)-2,3,3a,4,5,5a,5b,6,7,7a,8,11,11a,11b,12,13,13a,13b-octadecahydro-1H-cyclopenta[a]chrysen-9-yl)benzoic acid]", "EC50": "< 100"}, {"smiles": "C=C(C)[C@@H]1CC[C@]2(NC(N)=O)CC[C@]3(C)[C@H](CC[C@@H]4[C@@]5(C)CC=C(c6ccc(C(=O)O)cc6)C(C)(C)[C@@H]5CC[C@]43C)[C@@H]12", "note": "[Example 69-1, 4-((1R,3aS,5aR,5bR,7aR,11aS,11bR,13aR,13bR)-5a,5b,8,8,11a-pentamethyl-1-(prop-1-en-2-yl)-3a-ureido-2,3,3a,4,5,5a,5b,6,7,7a,8,11,11a,11b,12,13,13a,13b-octadecahydro-1H-cyclopenta[a]chrysen-9-yl)benzoic acid]", "EC50": "< 100"}, {"smiles": "C=C(C)[C@@H]1CC[C@]2(NCC(=O)N3CCCC3)CC[C@]3(C)[C@H](CC[C@@H]4[C@@]5(C)CC=C(c6ccc(C(=O)O)cc6)C(C)(C)[C@@H]5CC[C@]43C)[C@@H]12", "note": "[Example 147, 4-((1R,3aS,5aR,5bR,7aR,11aS,11bR,13aR,13bR)-5a,5b,8,8,11a-pentamethyl-3a-(2-oxo-2-(pyrrolidin-1-yl)ethylamino)-1-(prop-1-en-2-yl)-2,3,3a,4,5,5a,5b,6,7,7a,8,11,11a,11b,12,13,13a,13b-octadecahydro-1H-cyclopenta[a]chrysen-9-yl)benzoic acid]", "EC50": "< 100"}, {"smiles": "C=C(C)[C@@H]1CC[C@]2(NCCNC(C)=O)CC[C@]3(C)[C@H](CC[C@@H]4[C@@]5(C)CC=C(c6ccc(C(=O)O)cc6)C(C)(C)[C@@H]5CC[C@]43C)[C@@H]12", "note": "[Example 195, 4-((1R,3aS,5aR,5bR,7aR,11aS,11bR,13aR,13bR)-3a-(2-acetamidoethylamino)-5a,5b,8,8,11a-pentamethyl-1-(prop-1-en-2-yl)-2,3,3a,4,5,5a,5b,6,7,7a,8,11,11a,11b,12,13,13a,13b-octadecahydro-1H-cyclopenta[a]chrysen-9-yl)benzoic acid]", "EC50": "< 100"}]}, {"system": "recombinant NL4-3 virus (Renilla luciferase in nef, Gag P373S; NLRluc) in MT-2 cells", "assay": "whole plant or invertebrate", "type": "cell-based, HIV", "conditions": "Renilla, NL43, luciferase activity in cells infected for 4-5 days with NLRluc recombinants, serial dilutions of inhibitor; numeric values; read-out: EC50", "in_short": "as §1", "units": {"EC50": "nM"}, "values": [{"smiles": "C=C(C)[C@@H]1CC[C@]2(NC(=O)N(C)C)CC[C@]3(C)[C@H](CC[C@@H]4[C@@]5(C)CC=C(c6ccc(C(=O)O)cc6)C(C)(C)[C@@H]5CC[C@]43C)[C@@H]12", "note": "[Example 32, 4-((1R,3aS,5aR,5bR,7aR,11aS,11bR,13aR,13bR)-3a-(3,3-dimethylureido)-5a,5b,8,8,11a-pentamethyl-1-(prop-1-en-2-yl)-2,3,3a,4,5,5a,5b,6,7,7a,8,11,11a,11b,12,13,13a,13b-octadecahydro-1H-cyclopenta[a]chrysen-9-yl)benzoic acid]", "EC50": 10}]}]}
